According to patent publication US20240262845A1, “PYRIDINIUM SALTS, METHODS OF MAKING, AND METHODS OF USE” (UNIVERSITY OF WYOMING, priority 2023, published 2024):
“Also recorded” adds a separate entry of the source. Where a name gives a salt, the structure may show the parent alone.

Experiments:
[1] = system: HEK293T lysates; assay: Chemoproteomic profiling of HEK293T lysates (protein-level enrichment); format: biochemical, human; conditions: for Western blot (streptavidin-HRP) proteome labeling profile of elutions: 0-100 μM probe, with/without light, before digestion; for number of proteins identified (from ≥2 unique peptides) showing ≥2-fold enrichment versus DMSO: about 100 μM probe, 5 mg/mL lysate, 60 min incubation, 20 min irradiation: 302 nm (1a), 320 nm (1b), 440 nm (2b)
Protocol: In lysate tryptophan probe treatment for protein-level characterization: HEK293T cell pellets were suspended in native lysis buffer (50 mM HEPES pH 7.5, 150 mM sodium chloride (NaCl), 1.5 mM MgCl2, 1 mM DTT, 0.8% NP-40, 5% glycerol, and 1× protease inhibitors (Thermo)) at 2× the pellet volume. The samples were sonicated on ice for 30 seconds at 20% amplitude with a 2 second pulse ON and 3 second pulse OFF. Cell debris was removed by centrifugation at 20,000×g for 20 minutes at 4° C. Protein concentration was determined by bicinchoninic acid (BCA) (Pierce) and diluted down to 5 mg/mL with ChemProt buffer (50 mM HEPES pH 7.5, 150 mM NaCl, 1.5 mM MgCl2, 1 mM DTT, 0.4% NP-40, and 1x protease inhibitors (Thermo). 5 mg cell lysates were treated with 100× stocks of the tryptophan probes (pyridinium salts 1a, 1b, and 2b) to generate final concentrations (0, 1, 10, and 100 μM) in 1% DMSO. Lysates were incubated for 1 hour at 4° C. followed by photo-activation at respective wavelengths for 20 minutes at 4° C. Excess probe was removed using Sephadex G-25 PD-10 desalting columns (GE Healthcare) pre-equilibrated with 50 mM HEPES pH 7.5, 150 mM NaCl, 1.5 mM MgCl2, and 0.4% NP-40. The samples were then treated with 100 μL Neutravidin resin as a 50% slurry (Peirce). The samples were incubated overnight on a rotating apparatus at R.T. The following day, the beads were transferred to a MobiCol column (Boca Scientific), washed 3× with phosphate buffered saline (PBS) containing 0.2% SDS, washed 3× with PBS, and the enriched proteins were eluted with 2× NuPAGE lithium dodecyl sulfate (LDS) containing 10 mM DTT (Pierce) and heated for 30 minutes at 55° C. The eluent was collected and subsequently treated with 20 mM iodoacetamide (Pierce) for 30 minutes at R.T. protected from light. Samples were passed through detergent removal columns (Pierce) that were pre-equilibrated with 50 mM HEPES pH 8.0. The samples were treated with 2.5 μg Trypsin/LysC (Promega) at 37° C. for 16 hours. The following day, the sample was collected and prepped for isobaric labeling with TMT reagents (Thermo) as specified by the manufacturer.
Quantitative proteomics by two-dimensional nano liquid chromatography-tandem mass spectrometry (nLC-MS/MS): For protein-level characterization, the TMT-labeled sample were reconstituted in 0.1% formic acid (FA)/2% acetonitrile for offline high-pH reversed phase separation (RP10) using a Dionex UltiMate 3000 high-performance liquid chromatography (HPLC) system with fraction collection using Chromeleon v.6.8 (Thermo) software. Separation was achieved on a Waters Xbridge C18 3.5 μm 2.1×150 mm HPLC column (Waters) using a flow rate of 250 μL min-1 and the following ternary gradient and conditions: mobile phase A=water (HPLC grade), mobile phase B=acetonitrile (HPLC grade), and mobile phase C=200 mM ammonium acetate, pH 10. Mobile phase C is held at 10% throughout gradient. Starting conditions are 89% mobile phase A and 1% mobile phase B, ramping mobile phase B to 80% over 65 min. Fractions were collected in 96-well plates at 100 sec per well. Fractions were reduced down to 12 fractions, dried, and reconstituted in 0.1% FA/2% acetonitrile for nLC-MS/MS. All data were acquired using a Orbitrap Fusion Lumos coupled to an Easy-nLC 1200 nanoflow liquid chromatograph operating at 300 nL min-1. Peptides were cleaned up using a 1 cm online custom trap then eluted on a custom 20 cm laser pulled 75 μm column with C18 resin. Peptides were quantified using the synchronous precursor selection (SPS-MS3) or HCD method for TMT quantitation with 120k MS1 resolving power, 50 ms max injection time and 100% AGC. MS2 spectra were selected using the top ten most abundant features with a charge state between 2-6 using CID (collision induced dissociation) in the ion trap. The AGC was set to 100% with an isolation width of 0.7. MS3 was performed on the top 10 most abundant MS2 features between 400-1600 amu with a collision energy of 55%, AGC of 250%, and 50k resolution. […]

[2] = biological target: T1, lysozyme (Gallus gallus, UniProt P00698); assay: Photochemical labeling of lysozyme with pyridinium salts (General Procedure B, LC/MS); format: biochemical, chicken; conditions: lysozyme labeling
T1 construct: Lysozyme (from chicken egg white, >40,000 units/mg of protein); purchased Sigma Aldrich; host or cells: chicken egg white
T1 sequence (P00698 19-147): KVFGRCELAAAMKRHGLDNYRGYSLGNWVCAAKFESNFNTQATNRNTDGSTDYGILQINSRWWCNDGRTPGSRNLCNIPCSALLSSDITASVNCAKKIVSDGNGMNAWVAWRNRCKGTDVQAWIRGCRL
Protocol: General Procedure B: Photochemical Irradiation of Peptides and Proteins: To a 2 mL Pyrex LC/MS vial (Thermo model #03-391-39) were sequentially added solutions containing the desired biomolecule, glutathione (GSH), pyridinium salt, and ammonium acetate (NH4OAc). The resulting solution was diluted to a final volume of 500 μL and then sparged using nitrogen for a minimum of 30 minutes prior to irradiation. The actively sparging solution was then placed in an EvoluChem™ PhotoRedOx Box photoreactor that was equipped with a Kessil, PR160 427 nm LED Lamp and was then irradiated (100% lamp intensity) for the designated time at room temperature while maintaining active sparging. The resultant reaction mixture was then analyzed directly by LC/MS. Analysis of labeling outcomes using LC/MS was performed either by extracted ion chromatogram intensities (method A) or by integrating the area under the peaks associated with peptide content (method B). These values were totaled, and estimated percentages were assigned according to relative intensities of peaks or ion counts.
Labeling of Lysozyme with Pyridinium Salt 2a (Lysozyme-2a Conjugate). Labeling of lysozyme (14.3 kDa) with the pyridinium salt 2a was performed by following general procedure B using the following solutions: lysozyme (27 μL, 182 μM, 10 μM final concentration), pyridinium salt 2a (200 μL, 500 μM, 200 μM final concentration), NH4OAc (100 μL, 100 mM, pH=6.9, 20 mM final concentration), glutathione (15 μL, 10 mM, 300 μM final concentration), and water (158 μL) with a 100% intensity irradiation time of 60 minutes. The reaction mixture was analyzed directly by LC/MS using method A and was estimated to have proceeded in >95% conversion and a 10.9:1 mono:di labeled ratio and 10% glutathionylation of all unlabeled and labeled protein content was observed.
Labeling of Lysozyme with Pyridinium Salt 2b (Lysozyme-2b Conjugate). Labeling of lysozyme (14.3 kDa) with the pyridinium salt 2b was performed by following general procedure Busing the following solutions: lysozyme (19 μL, 262 μM, […]), 2b (181 μL, 554 μM, 200 μM final concentration), NH4OAc (50 μL, 200 mM, pH=6.9, 20 mM final concentration), glutathione (50 μL, 3 mM, 300 μM final concentration), and water (200 μL) with a 100% intensity irradiation time of 10 minutes. The reaction mixture was analyzed directly by LC/MS using method A and was estimated to have proceeded with 83% conversion. […]
Labeling of Lysozyme with Pyridinium Salt 2c (Lysozyme-2c Conjugate). […] The reaction mixture was analyzed directly by LC/MS using method A and was estimated to have proceeded with 85% conversion and a 3.7:1 mono:di labeled ratio and 10% glutathionylation of all protein content was observed. […]

Row | labeling rate compared to pyridinium salt 2a [2] | SMILES | Western blot (streptavidin-HRP) proteome labeling profile of elutions [1] | number of proteins identified (from ≥2 unique peptides) showing ≥2-fold enrichment versus DMSO [1]
1 |  | Cc1cc(-c2ccccc2)cc(C)[n+]1N(C)C(=O)OCCCCC[C@@H]1SC[C@@H]2NC(=O)N[C@@H]21 [pyridinium salt 1b, 2,6-dimethyl-1-(methyl(((5-((3aS,4S,6aR)-2-oxohexahydro-1H-thieno[3,4-d]imidazole-4-yl)pentyl)oxy)carbonyl)amino)-4-phenylpyridin-1-ium tetrafluoroborate] | concentration and optically dependent proteome labeling profiles; also recorded: dose-response profiles | 365
2 | enhanced rate | COc1ccc2cc(-c3cc(C)[n+](N(C)C(=O)OCCCCCC[C@H]4NC(=O)N[C@H]4C)c(C)c3)ccc2c1 [pyridinium salt 2c, 4-(6-methoxynaphthalen-2-yl)-2,6-dimethyl-1-(methyl(((6-((4R,5S)-5-methyl-2-oxoimidazolidin-4-yl)hexyl)oxy)carbonyl)amino)pyridin-1-ium trifluoroacetate] |  | 
3 |  | Cc1cc(C)[n+](N(C)C(=O)OCCCCC[C@@H]2SC[C@@H]3NC(=O)N[C@@H]32)c(C)c1 [pyridinium salt 1a, 2,4,6-trimethyl-1-(methyl(((5-((3aS,4S,6aR)-2-oxohexahydro-1H-thieno[3,4-d]imidazol-4-yl)pentyl)oxy)carbonyl)amino)pyridin-1-ium tetrafluoroborate] | concentration and optically dependent proteome labeling profiles; also recorded: loss of signal | 185
